Assay results: US7422883B2, “Map kinase integrin-binding domain” (Inter-K Pty Limited, priority 2000, dated 2008)
No end group written: not given here.

Key:
β6-ERK2 interaction = assay: ERK2 peptide competition ELISA for β6-ERK2 binding; conditions: increasing concentrations incubated with ERK2
Procedure: To determine the β6-binding domain(s) of ERK2, a biotinylated β6 cytoplasmic tail peptide spanning the cytoplasmic tail of β6 was incubated with a soluble ERK2 peptide fragment in a total incubation volume of 20 μl phosphate buffered saline (PBS). The mixture was stood for 45 minutes at room temperature (RT). Soluble ERK2 in PBS was then added and the solution left for a further 30 minutes. Following incubation the reaction volume was made to 400 μl with carbonate buffer (0.015 M Na2CO3 and 0.035M NaHCO3 at pH 9.6) and 100 μl of this mixture added to each of 4 wells of a polystyrene ELISA plate (Nunc, Maxicorp). ERK2/peptides were allowed to attach to the plastic substrate for 18 to 20 hours at RT in the dark. After immobilisation the overlying buffer was flicked from the wells and excess solid surface blocked with casein (0.5% skim milk) in PBS for 60 minutes at RT. Wells were washed (×3) with was buffer (PBS plus 0.5% skim milk powder, 0.05% Tween-20) prior to incubation with the anti-β6 antibody SC-6632 (Santa Cruz) diluted 1:500 v/v in wash buffer (2 wells) or a control antibody (2 wells). Incubation with the primary antibody was carried out for 30 minutes at RT. […] Specific binding events were quantitatively determined using a colourimetric substrate system by measuring absorbency at […] (Bio-Rad, AP substrate kit). […]

ERK2 = target: T1, ERK2 (Mus musculus, UniProt P63085); assay: ELISA of ERK2 binding to biotinylated integrin cytoplasmic domain peptides
T1 construct: GST (glutathione-S-transferase); made in house
Procedure: Peptide fragments corresponding to regions of the cytoplasmic tail domain of the β6 subunit were screened in an enzyme-linked immunosorbent assay (ELISA) for binding with ERK2. The 52 amino acid long β6 cytoplasmic tail is shown in FIG. 16 as are the amino acid sequences for the cytoplasmic domains of the β1 to β3 subunits. In particular, four synthetic peptides designated fragment 1 to fragment 4 were prepared and biotinylated at the N-terminal end of each, respectively (Auspep Pty Ltd, Melbourne Australia).
(§1) Overlapping biotinylated fragments 1 to 4 were coated onto streptavidin coated polystyrene plates (Pierce, Rockford Ill. USA, Cat No. 15125) and the ELISA performed substantially according to manufacturers instructions. Briefly, wells are washed with 3×200 μl of wash buffer (TBS, 0.1% BSA, 0.05% Tween 20 or SuperBlock™ blocking buffer in TBS, Pierce, Prod. No. 37535) prior to addition of biotinylated peptides (100 μl) and incubation for 1 hr at room temperature to allow for capture of the peptides on the plate. Following another washing step, peptides were overlayed with GST-ERK, ERK (or JNK-1) alone at a volume of 100 μl per well, and the plates incubated for a further 1 hr at room temperature before removal of any unbound ERK by further washing.
Binding of ERK to the peptides is detected using 100 μl anti-ERK1/2 mAb SC1647 (Santa Cruz) as the primary antibody at a dilution of 1:700 (isotype matched antibody IgG2b is used as a control). This is followed by another washing step and addition of 100 μl rabbit anti-mouse antibody (Biorad) conjugated to alkaline phosphatase at a concentration of 1:1000 for 30 minutes again at room temperature. A […] of detection reagent (alkaline phosphatase detection kit-Biorad) is then introduced into each well after a final washing step and allowed to react for 15-30 minutes at room temperature in the dark before absorbance is measured at 405 nm. All dilutions of peptides, MAP kinase and antibodies were performed using the wash buffer. GST-ERK is a fusion protein consisting of ERK coupled to glutathione-S-transferase and purified from host cells transfected with pGEX vector.
To further localise the binding domain on the cytoplasmic tail of the β6 subunit, progressively shorter peptides from the region of the β6 cytoplasmic tail corresponding to peptide fragment 2 were synthesised, biotinylated and the capacity to associate or otherwise bind to ERK2 assessed as described above. The binding of GST.ERK2 to a 15 mer test peptide (seq. 4) having the amino acid sequence RSKAKWQTGTNPLYR (SEQ ID NO: 7) and a 10 mer test peptide having the sequence RSKAKWQTGT (SEQ ID NO: 21) is shown in FIG. 20 compared to fragment 2 over a range of concentrations of the peptides. […] 4 peptide compared to fragment 2 was found. Binding of ERK2 to the seq. 3 peptide was substantially less than that observed for seq. 4.
Binding of ERK2 to the seq.4 peptide (RSKAKWQTGTNPLYR) (SEQ ID NO: 7) was compared with peptides corresponding to regions of the cytoplasmic domain of integrin subunits β1, β2, β3 and β5. The amino acid sequences for those peptides is shown below:
To evaluate this, cell lysates containing equal protein loads were prepared from SW480 wild-type cells and SW480 cells transfected with either vector alone (mock transfectants), wild type β6 or the β6 deletion mutant Δ746-764 (lacking the sequence EAERSKAKWQTGTNPLYRG (SEQ ID NO: 26), Cone et al, 1994). The lysates were immunoprecipitated with mAbs R6G9 (anti-β6), P1F6 (anti-β5) or murine IgG control antibody (mlgG). […] To determine whether β5 can bind ERK2 in vitro, a 15-mer peptide fragment derived from the β5 cytoplasmic domain corresponding to the ERK binding domain on β6 was tested for its ability to bind ERK2 in an ELISA.

JNK-1 = target: T2, JNK-1 (Homo sapiens, UniProt P45983); assay: ELISA of JNK-1 binding to β6 cytoplasmic tail peptide; conditions: JNK-1 0.05-1.5 μm/100 μl; FIG. 24
T2 construct: purchased Santa Cruz
Procedure: as §1
Briefly, 0.05-1.5 μm/100 μl of JNK-1 (Santa Cruz) was aliquoted into wells of a 96 well culture place containing increasing concentrations of the β6 cytoplasmic domain tail peptide used in Example 3. For comparison purposes, non-phosphorylated GST-ERK2 (0.05-1.5 μm/100 μl) was aliquoted into wells containing β6 cytoplasmic tail peptide or peptide fragments 1 or 2, respectively. Binding of JNK-1 was detected using mouse anti-JNK-1 mAb SC 474-G (Santa Cruz) and HRP-conjugated goat anti-mouse antibody.

SW480 β6 transfectants = assay: WST-1 growth inhibition, SW480 β6-expressing cells; assay type: cell-based, human; conditions: 30 μm, 24 hours, serum-free, FIG. 29
Procedure: (§2) HT29 and SW480 β6-expressing colon cancer cell lines were seeded into wells of 96-well microtitre plates (Nunclon) in Dulbecco's Modified Eagle's Medium (DMEM) supplemented with 10% foetal bovine serum, glutamine, Hepes, and antibiotics. […] The cell proliferation reagent WST-1 is designed to be used for the non-radioactive, spectrophotometric quantification of cell growth and viability in proliferation and chemosensitivity assays. […]
(§3) Specifically, at the termination of experiments, 30 μl of WST-1 was added to 270 μl culture medium volume in each microtitre well and the colour change quantitated in an ELISA plate reader by measuring absorbance of the formazan product at […] (using a reference wavelength of more than 600 nm). The mean absorbance readings from triplicate wells (±standard error of the means) after subtraction of background control wells (culture medium without cells) was determined.
[…] Percentage inhibition was assessed by the WST-1 colorimetric dehydrogenase assay described in Example 6. […]

SW480 cells = assay: In vitro wound assay (cell migration); assay type: cell-based, human; conditions: SW480 lacking αvβ6, 1.25-10 μM, 48 hours, 1% foetal calf serum; FIG. 40
Procedure: The wound assay was performed by seeding 2×10^5 cells into 24 well (1.6 cm diameter) tissue culture plates in Dulbecco's modified Eagles medium (DMEM) supplemented by 10% foetal calf serum, HEPES, glutamine and antibiotics. The confluent cell monolayers were streaked with the tip of a plastic pipette in a cross-wire fashion, and loose non-adherent cells washed off gently with medium before replacing the culture medium with DMEM supplemented with 1% foetal calf serum. In addition, RSKAKWQTGTNPLYR (SEQ ID NO: 7) peptide ligated to penetratin (carrier peptide) by means of cysteine Cys (Npys) bonding was added to each well at a final concentration in the range of 1.25-10 μM. Cell migration across the wounded (streaked) area was photographed (Techpan, Kodachrome, ASA100) after a further 48 hours in culture. […] The conditions utilised in the assay were as follows: A: no peptide-penetratin complex added, B: 2.5 μM peptide-penetratin complex added, C: 5 μM peptide-penetratin complex added, D: 10 μM peptide-penetratin complex added.

HT29 colon cancer cells = assay: WST-1 growth inhibition study, HT29; assay type: cell-based, human; conditions: HT29, 10 μm, 24 hours, serum-free; FIG. 28
Procedure: as §2, §3

T1 sequence (P63085 whole entry, the tested form may be a part): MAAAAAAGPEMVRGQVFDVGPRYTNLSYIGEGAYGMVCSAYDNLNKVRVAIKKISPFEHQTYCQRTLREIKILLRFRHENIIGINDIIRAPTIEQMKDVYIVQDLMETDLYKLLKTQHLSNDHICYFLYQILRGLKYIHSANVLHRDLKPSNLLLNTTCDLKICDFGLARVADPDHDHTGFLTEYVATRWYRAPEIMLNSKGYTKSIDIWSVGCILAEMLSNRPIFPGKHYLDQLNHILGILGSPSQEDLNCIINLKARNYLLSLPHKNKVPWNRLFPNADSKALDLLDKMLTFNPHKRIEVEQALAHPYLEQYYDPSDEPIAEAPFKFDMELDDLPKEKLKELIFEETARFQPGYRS
T2 sequence (P45983 whole entry, species assumed): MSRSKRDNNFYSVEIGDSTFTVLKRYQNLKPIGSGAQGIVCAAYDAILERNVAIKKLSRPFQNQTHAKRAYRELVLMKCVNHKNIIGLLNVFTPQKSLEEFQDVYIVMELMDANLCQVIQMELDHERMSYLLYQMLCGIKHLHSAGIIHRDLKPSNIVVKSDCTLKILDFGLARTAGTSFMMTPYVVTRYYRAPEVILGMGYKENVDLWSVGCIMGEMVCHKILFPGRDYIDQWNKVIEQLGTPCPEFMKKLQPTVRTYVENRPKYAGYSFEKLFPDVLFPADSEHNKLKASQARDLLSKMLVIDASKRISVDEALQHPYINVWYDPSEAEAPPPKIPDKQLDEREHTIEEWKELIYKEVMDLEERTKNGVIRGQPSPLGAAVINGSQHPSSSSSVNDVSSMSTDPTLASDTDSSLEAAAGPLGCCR

Substance	concentration at which maximal β6 bound to ERK was detected (β6-ERK2 interaction) [µM]	binding of non-phosphorylated ERK2 to peptide (ERK2; over a range of concentrations of ERK2, FIG. 18)	binding of JNK-1 to peptide (JNK-1)	inhibition of cell proliferation (WST-1) (SW480 β6 transfectants)	cell migration across wounded area (wound repair) (SW480 cells)	binding of ERK2 to integrin subunit peptides (ERK2; corrected for non-specific binding, FIG. 34)	binding of GST.ERK2 to peptide (ERK2; over a range of concentrations of the peptides, compared to fragment 2, FIG. 20)	inhibition of cell proliferation (WST-1) (HT29 colon cancer cells)
β6 cytoplasmic tail peptide: peptide spanning the 52 amino acid long β6 cytoplasmic tail (HDRKEVAKFEAERSKAKWQTGTNPLYRGSTSTFKNVTYKHREKQKVDLSTDS)	0.25	Significant binding	Significant binding					
RSKAKWQTGTNPLYR (also: biotinylated, site not given here) [seq. 4, 15 mer fragment of the β6 cytoplasmic domain]				Only the carrier penetratin-peptide complex was effective in inhibiting cell proliferation in contrast to either peptide or penetratin alone	not stimulated	significant binding	no reduction in binding	Only the carrier penetratin-peptide complex was effective in inhibiting cell proliferation in contrast to either peptide or penetratin alone
